Test results published in patent EP0415776A2, “Indolobenzoquinoline derivatives, their preparation and their use as anti-arrhythmic drugs” (Sankyo Company Limited, priority 1989, dated 1991).
Structures can show the parent of a compound that is named as a salt.

Test system: arrhythmias caused by myocardial ischemia in dogs
Test: arrhythmias caused by myocardial ischemia in dogs (glass bead injected into left coronary artery)
Type: in vivo, Male Beagles
Protocol: Male Beagles weighing 8 - 12 kg were anesthetized with sodium pentobarbital (30 mg/kg i.v.). The animal was placed in a supine position, and the left carotid artery was isolated from the surrounding tissue. A metal cannula was then introduced from the left carotid artery and its tip was placed at the coronary orifice. A glass bead having a diameter of 1.7 mm was injected through the metal cannula into the left coronary artery. The glass bead injection produced a ST segment elevation, which was followed by ventricular arrhythmias due to myocardial infarction.
The dog was used in a conscious state for 24 hours after myocardial ischemia developed, when the arrythmic ratio exceeded 70%. The arrhythmic ratio was calculated by dividing the number of arrhythmias by the total heart beats in one minute.
Figures 1 and 2 of the accompanying drawings show the course of the arrhythmias with time following a single intravenous administration of the compound of Example 1 and its racemate, respectively.

## N[C@@H]1Cc2c3n(c4cccc(O)c24)C(=O)C[C@H]2CCC[C@@H]1[C@@H]32 [Example 1, (3aR,4R,12aR,12bS) 4-Amino-2,3,3a,4,5,12,12a,12b-octahydro-6-hydroxyindolo[3,2,1,-ij]benz[de]quinolin-11-(1 H)-one hydrochloride sesquihydrate]
Example 1 at 2.5 mg/kg i.v. versus racemate at 5.0 mg/kg i.v.
  suppressing arrhythmias, compared with racemate: almost comparable with its racemate at 5.0 mg/kg i.v.
Single i.v. administration, dogs, inferred from 2.5 mg/kg vs 5.0 mg/kg
  potency in anti-arrhythmic action relative to racemate: about twice
Single intravenous administration, conscious dog 24 hours after myocardial ischemia developed, course with time, Figures 1 and 2
  number of arrhythmias per minute: decreased the number of arrhythmias per minute
